In a melting point compilation (Tetko et al.) one finds melting point data, which are given here for 48 compounds.

The term melting point denotes the temperature of the solid-liquid transition.

In turn, `Cn1c(CCl)nc2c1c(=O)[nH]c(=O)n2C` registered a melting point of 269 to 271 °C.
Consider `O=c1[nH]ccs1`, for which the melting point was in the range of 55 to 57 °C.
Turning to `Cc1nc2c(Cl)cccc2n1O`, the melting point fell in the range of 239 to 241 °C.
`C=CCNC(=O)c1cccc(S(=O)(=O)Cl)c1` gave a melting point of 62 to 64 °C.
On to `Cc1cc(C)cc(C(=O)CC#N)c1`, for which the melting point is 140 to 142 °C.
The same measure for `COCCNc1cc2nc[nH]c(=O)c2cc1[N+](=O)[O-]`: 259 to 261 °C.
In turn, `OCc1ccc(N2CCCC2)cc1` showed a melting point of 61 to 63 °C.
As for `O=C(O)c1ccc(Cl)[nH]c1=O`, the melting point lay in the range of 224 to 226 °C.
Compound `O=C1CNC(=O)N1CCCCl` returned a melting point of 90 to 92 °C.
Turning to `NCc1ccc(NC(=O)CCCOc2ccccc2)cc1`, the melting point was 96 to 98 °C.
Compound `COc1cc(C)ccc1Oc1ccc(F)cc1N` came in with a melting point of 60 to 62 °C.
With `O=C(Nc1cn[nH]c1)OCC(F)(F)F`, the melting point was in the range of 151 to 153 °C.
With `N#CC=Cc1cccnc1`, the melting point is 104 to 106 °C.
Regarding `COc1ccc(NC(=O)c2ccc(Br)cc2)c(C)c1`, the melting point lay in the range of 164 to 166 °C.
The same measure for `Cc1nc(Cl)c2cc(-c3ccccc3)sc2n1`: 114 to 116 °C.
To `CCOC(=O)c1sc(C(C)N)nc1C` (stereo not drawn) belongs 53 to 55 °C; to `Nc1c(C(=O)N2CCOCC2)oc2ccccc12`, 123 to 125 °C; to `O=C(O)c1ccc2[nH]nnc2n1`, 277 to 279 °C.
In the case of `CC(=O)c1cnn(-c2ccccc2)c1`, the melting point is 124 to 126 °C.
To `N#Cc1c(F)cccc1Sc1ccccc1` belongs 108 to 110 °C.
To `NC(=S)N1CCN(c2ccc(Cl)cc2)CC1` belongs 176 to 178 °C.
In the case of `c1ccc2oc(C3CCNCC3)nc2c1`, the melting point fell in the range of 111 to 113 °C.
As to `O=C(O)c1cccn2cc(CN3CCCC3)nc12`, the melting point was 264 to 266 °C.
To `CN1CCN(CC(N)c2ccccc2)CC1` (stereo not drawn) belongs 58 to 60 °C.
For `CNc1cn[nH]c(=O)c1`, the melting point was in the range of 279 to 281 °C.
`O=C(O)CCN1C(=O)c2ccccc2S1(=O)=O` had a melting point of 164 to 166 °C.
The compound `O=C(O)CCOc1ccc(Oc2ccccc2)cc1` came in with a melting point of 118 to 120 °C.
As for `Cc1cc(C=O)c(C)[nH]1`, the melting point is 139 to 141 °C.
In turn, `CS(=O)(=O)c1ccc(F)cc1[N+](=O)[O-]` showed a melting point of 148 to 150 °C.
In the case of `O=Cc1cnn2ccccc12`, the melting point lay in the range of 82 to 84 °C.
With `CCc1ccc(C(=O)O)s1`, the melting point lay in the range of 60 to 62 °C.
As for `CC(C)(C)OC(=O)N1CCC(O)(Cc2cccc(Cl)c2)C1` (stereo not drawn), the melting point was 109 to 111 °C.
Compound `Cc1nc2ccccc2cc1C(=O)O` showed a melting point of 243 to 245 °C.
As for `CC(C)(C)C1(C)OC(=O)CC(=O)O1`, the melting point lay within 72 to 74 °C.
With `CC(C)Cc1ccc(C(=O)CCC(=O)O)cc1`, the melting point is 113 to 115 °C.
To `O=C(O)c1ccc(Cl)c(N2CCCC2=O)c1` belongs 288 to 290 °C; to `O=Cc1ccc(-c2ccc(Cl)cc2[N+](=O)[O-])o1`, 92 to 94 °C; to `NCc1cccnc1N1CCOCC1`, 41 to 43 °C.
In turn, `NC(=O)c1cccc(OCCC(=O)O)c1` registered a melting point of 196 to 198 °C.
For `Cc1nn(C2CCS(=O)(=O)C2)c(N2CCCCC2)c1C=O` (stereo not drawn), the melting point was 86 to 88 °C.
`Cc1c(C(=O)O)cnn1C1CCS(=O)(=O)C1` (stereo not drawn) displayed a melting point of 249 to 251 °C.
Turning to `O=C(O)c1c[nH]c(-c2ccccc2)n1`, the melting point lay within 240 to 242 °C.
Compound `NC(=O)c1csc(N)n1` yielded a melting point of 196 to 198 °C.
To `CC(C)c1nc2ccccc2n1CC#N` belongs 116 to 118 °C; to `O=C(O)C(NS(=O)(=O)c1cccc(Cl)c1)c1ccccc1` (stereo not drawn), 168 to 170 °C; to `CCOC(=O)/C(C#N)=C\Nc1ccc2c(c1)OCCCO2`, 124 to 126 °C.
To `O=C(O)Cc1coc2ccc3ccccc3c12` belongs 166 to 168 °C; to `Cc1cc(C)c(C)c(Oc2c(C(=O)O)c(C)nn2C)c1`, 215 to 217 °C.
